pIC50: −log10 of the molar value.
Target: T1, BTK (Homo sapiens, UniProt Q06187)
T1 construct: purchased Upstate 14-552
Assay: In vitro BTK kinase assay (BTK-POLYGAT-LS)
Type: biochemical
Settings: IC50 (10 uM ATP)
Description: In vitro BTK Kinase Assay
The purpose of the BTK in vitro assay is to determine compound potency against BTK through the measurement of IC50. […] For a typical assay, a 24 μL aliquot of a ATP/peptide master mix (final concentration; ATP 10 μM, polyGAT 100 nM) in kinase buffer (10 mM Tris-HCl pH 7.5, 10 mM MgCl2, 200 μM Na3PO4, 5 mM DTT, 0.01% Triton X-100, and 0.2 mg/ml casein) is added to each well. […] The assay is incubated for 30 minutes before being stopped with 28 μL of a 50 mM EDTA solution. […] The plate is covered and incubated for 45 minutes at room temperature.

T1 sequence (Q06187 whole entry): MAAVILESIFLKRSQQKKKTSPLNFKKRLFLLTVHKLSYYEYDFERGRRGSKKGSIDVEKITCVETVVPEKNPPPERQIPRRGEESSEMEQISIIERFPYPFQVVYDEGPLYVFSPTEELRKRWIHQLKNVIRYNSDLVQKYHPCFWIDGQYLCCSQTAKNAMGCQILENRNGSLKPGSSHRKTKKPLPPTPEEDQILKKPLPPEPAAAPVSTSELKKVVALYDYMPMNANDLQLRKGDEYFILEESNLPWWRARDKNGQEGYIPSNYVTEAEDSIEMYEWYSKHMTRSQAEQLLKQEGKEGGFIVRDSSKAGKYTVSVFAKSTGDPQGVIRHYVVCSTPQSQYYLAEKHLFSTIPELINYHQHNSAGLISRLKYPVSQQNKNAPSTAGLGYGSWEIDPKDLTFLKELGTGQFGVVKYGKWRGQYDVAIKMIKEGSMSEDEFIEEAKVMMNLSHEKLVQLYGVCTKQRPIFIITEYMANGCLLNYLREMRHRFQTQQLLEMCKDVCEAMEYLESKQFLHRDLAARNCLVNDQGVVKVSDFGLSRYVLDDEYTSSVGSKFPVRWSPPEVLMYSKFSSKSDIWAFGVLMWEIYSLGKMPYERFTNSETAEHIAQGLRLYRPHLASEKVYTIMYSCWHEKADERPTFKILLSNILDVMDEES

Question: `Nc1ncnc2c1cnn2C1CCCN(C(=O)CNc2cc(Cl)cc(Cl)c2)C1` (stereo not shown) [Compound 232] was tested. Which pIC50 did it give?
Answer: The pIC50 was < 5.00.

Question: With `Nc1cc(N[C@H]2CCCN(C(=O)CNc3cc(Cl)cc(Cl)c3)C2)ncn1` [Compound 133] as the molecule, how does the pIC50 read?
Answer: The pIC50 was 5.00 to 6.00.

Question: How did the pIC50 turn out when `O=C(CNc1cc(Cl)cc(Cl)c1)N1CC[C@@H](Nc2ncnc3[nH]ccc23)C1` [Compound 155] was run?
Answer: Its pIC50 is < 5.00.

Question: `CCC1C(Nc2ncnc3[nH]ccc23)CCCN1C(=O)CNc1cc(F)cc(Cl)c1` (stereo not shown) [Compound 7] was tested. Which pIC50 did it give?
Answer: The pIC50 was 6.00 to 7.00.

Question: How did the pIC50 turn out when `Nc1ncnc(N[C@@H]2CCCN(C(=O)CNc3cc(Cl)cc(Cl)c3)C2)c1Cl` [Compound 8] was run?
Answer: Its pIC50 is 5.00 to 6.00.

Question: How did the pIC50 turn out when `O=C(CNC1CCCC1)N1CCC[C@H](Nc2ncnc3[nH]ccc23)C1` [Compound 149] was run?
Answer: The pIC50 was < 5.00.

Question: How did the pIC50 turn out when `O=C(CNc1cccc(F)c1)N1CCC[C@H](Nc2ncnc3[nH]ncc23)C1` [Compound 182] was run?
Answer: Its pIC50 is < 5.00.

Question: How did the pIC50 turn out when `CCn1cnc2cnc(N[C@H]3CCCN(C(=O)CNc4cc(Cl)cc(Cl)c4)C3)cc21` [Compound 158] was run?
Answer: Its pIC50 is < 5.00.

Question: `O=C([C@H](Nc1cc(Cl)cc(Cl)c1)C1CC1)N1CCC[C@H](Nc2ncnc3[nH]ccc23)C1` [Compound 206] was tested. Which pIC50 did it give?
Answer: Its pIC50 is 5.00 to 6.00.

Question: `CC1CC(N(C)c2ncnc3[nH]ncc23)CN(C(=O)CNc2cc(Cl)cc(Cl)c2)C1` (stereo not shown) [Compound 87] was tested. Which pIC50 did it give?
Answer: Its pIC50 is > 7.00.

Question: `O=C(CNc1cc(Cl)cc(Cl)c1)N1CCCC(N(CCN2CCCCC2)c2ncnc3[nH]ccc23)C1` (stereo not shown) [Compound 88] was tested. Which pIC50 did it give?
Answer: The pIC50 was 5.00 to 6.00.

Question: How did the pIC50 turn out when `O=C(CNc1ccccc1S(=O)(=O)N1CCCCC1)N1CCC[C@@H](Nc2ncnc3[nH]ccc23)C1` [Compound 221] was run?
Answer: Its pIC50 is 6.00 to 7.00.

Question: How did the pIC50 turn out when `CN(c1ncnc2[nH]ccc12)C1CCCN(C(=O)CNc2cccc(Cl)c2)C1C(F)(F)F` (stereo not shown) [Compound 16] was run?
Answer: Its pIC50 is > 7.00.

Question: How did the pIC50 turn out when `CC1CCCCC1NCC(=O)N1CCC[C@H](Nc2ncnc3[nH]ccc23)C1` (stereo partly shown) [Compound 140] was run?
Answer: The pIC50 was < 5.00.

Question: With `CC1C(N(C)c2ncnc3[nH]ncc23)CCCN1C(=O)CNc1cc(Cl)cc(Cl)c1` (stereo not shown) [Compound 55] as the molecule, how does the pIC50 read?
Answer: The pIC50 was > 7.00.

Question: With `CN(c1ncnc2[nH]ccc12)C1CCCN(C(=O)CNc2ccccc2)C1C(F)(F)F` (stereo not shown) [Compound 15] as the molecule, how does the pIC50 read?
Answer: Its pIC50 is > 7.00.

Question: How did the pIC50 turn out when `CN(c1ncnc2[nH]ncc12)[C@@H]1CCCN(C(=O)CNc2cc(Cl)cc(Cl)c2)C1` [Compound 211] was run?
Answer: Its pIC50 is > 7.00.

Question: How did the pIC50 turn out when `CC1C(Nc2ncnc(N)c2F)CCCN1C(=O)CNc1cc(Cl)cc(Cl)c1` (stereo not shown) [Compound 62] was run?
Answer: The pIC50 was > 7.00.

Question: With `CC1C(Nc2ncnc3[nH]ccc23)CCCN1C(=O)[C@@H](C)Nc1cc(Cl)cc(Cl)c1` (stereo partly shown) [Compound 81] as the molecule, how does the pIC50 read?
Answer: The pIC50 was > 7.00.

Question: `O=C([C@H](Nc1cc(F)cc(Cl)c1)C1CC1)N1CCC[C@H](Nc2ncnc3[nH]ncc23)C1` [Compound 223] was tested. Which pIC50 did it give?
Answer: The pIC50 was 5.00 to 6.00.

Question: How did the pIC50 turn out when `CN(c1ncnc2[nH]ccc12)[C@H]1CCN(C(=O)CNc2cc(Cl)cc(Cl)c2)C1` [Compound 132] was run?
Answer: The pIC50 was < 5.00.

Question: `O=C(CNC1CCCCC1)N1CCC[C@H](Nc2ncnc3[nH]ccc23)C1` [Compound 162] was tested. Which pIC50 did it give?
Answer: The pIC50 was < 5.00.

Question: How did the pIC50 turn out when `C[C@H]1[C@@H](Nc2ncnc3[nH]ncc23)CCCN1C(=O)CNc1cc(F)cc(Cl)c1` [Compound 27] was run?
Answer: The pIC50 was 6.00 to 7.00.

Question: With `CC1C2C(CCN1C(=O)CNc1cc(Cl)cc(Cl)c1)CCN2c1ncnc2[nH]ccc12` (stereo not shown) [Compound 57] as the molecule, how does the pIC50 read?
Answer: The pIC50 was > 7.00.

Question: With `NC(=O)c1cnc2[nH]ccc2c1N[C@@H]1CCCN(C(=O)CNc2cc(Cl)cc(Cl)c2)[C@@H]1C(F)(F)F` [Compound 227] as the molecule, how does the pIC50 read?
Answer: The pIC50 was > 7.00.

Question: How did the pIC50 turn out when `C[C@H]1[C@H](Nc2ncnc3[nH]ncc23)CCCN1C(=O)CNc1cc(F)cc(Cl)c1` [Compound 26] was run?
Answer: Its pIC50 is 6.00 to 7.00.

Question: How did the pIC50 turn out when `C[C@H]1[C@@H](Nc2ncnc3[nH]ncc23)CCCN1C(=O)CNc1cc(Cl)cc(Cl)c1` [Compound 31] was run?
Answer: Its pIC50 is > 7.00.

Question: With `Nc1ncnc(N2CCC3CCN(C(=O)CNc4cc(Cl)cc(Cl)c4)CC32)c1F` (stereo not shown) [Compound 112] as the molecule, how does the pIC50 read?
Answer: The pIC50 was > 7.00.

Question: With `O=C(CNc1cc(Cl)cc(Cl)c1)N1CCOCC(Nc2ncnc3[nH]cnc23)C1` (stereo not shown) [Compound 50] as the molecule, how does the pIC50 read?
Answer: The pIC50 was 6.00 to 7.00.

Question: `CN(c1ncnc2[nH]ccc12)C1CCCN(C(=O)CNc2cc(F)cc(Cl)c2)C1C(F)(F)F` (stereo not shown) [Compound 9] was tested. Which pIC50 did it give?
Answer: The pIC50 was > 7.00.

Question: `O=C(CNc1cc(Cl)cc(Cl)c1)N1CCCC(N(CCO)c2ncnc3[nH]ccc23)C1` (stereo not shown) [Compound 43] was tested. Which pIC50 did it give?
Answer: Its pIC50 is > 7.00.
